# Measurements: patent US20040074621A1, “Method for reducing slime production and mixture making the same” (Yuen Foong Yu Paper MFG Co., Ltd., priority 2002, published 2004)
# What was measured:
# [1] = system: culture isolated from the slime; assay: The effect of the antagonistic and the dispersing agent on the formation of the deposit; format: cell-based; conditions: after 7 days
# Procedure: Cultures which are isolated from the slime are cultivated in a NB cultivation liquid for 21-24 hours. Then, 1 mL culture liquids of the isolated cultures are centrifuged in 15000 rpm for 1 min and the supernatants thereof are removed. All the isolated cultures are re-suspended by adding 1 mL sterile water, and then each re-suspended culture is inoculated into a flask which already contains sterile white water 100 mL and 3 g LBKP pulp. Later, different dispersing agents are added into different flasks of each kind of culture to obtain different mixtures. The mixtures are cultivated in an incubate shaker at 40° C. 70 rpm. After being mixture cultivated for 3 hours, 3 mL antagonistic C5 (Streptomyces bikiniensis) which has been amounted to 10^7/mL after being cultivated for 24 hours is added thereinto to obtain another mixture. The mixture are cultivated in the incubate shaker again at 40° C., 70 rpm. After 7 days, the production of the deposit is recorded. The whole experiment is separated into six groups. […] There are four experimental group: 3: Only incubate the culture isolated from the slime without incubating the antagonistic C5; 4: Incubate both the culture isolated from the slime and the antagonistic C5; 5: Incubate the culture isolated from the slime and the dispersing agent; and 6: Incubate the culture isolated from the slime, the dispersing agent, and the antagonistic C5. The groups described above are double checked and all experiments are repeated at least once. Deposit % is calculated by the formula as follows: [formula]
# [2] = system: culture isolated from the slime; assay: The track experiment of periodically adding the antagonistic; format: cell-based
# Procedure: Cultures which are isolated from the slime are cultivated in a NB cultivation liquid for 21-24 hours. Then, 1 mL culture liquids of the isolated cultures are centrifuged in 15000 rpm for 1 min and the supernatants thereof are removed. All the isolated cultures are re-suspended by adding 1 mL sterile water, and then each re-suspended culture is inoculated into a flask which already contains sterile white water 100 mL and 3 g LBKP pulp. Later, different dispersing agents are added into different flasks of each kind of culture to obtain different mixtures. The mixtures are cultivated in an incubate shaker at 40° C. 70 rpm. After being mixture cultivated for 3 hours, 3 mL antagonistic C5 (Streptomyces bikiniensis) which has been amounted to 10^7/L after being cultivated for 24 hours is added thereinto to obtain another mixture. The mixture are cultivated in the incubate shaker again at 40° C. 70 rpm. […] Then, the final deposit amount after another 7 days (total 14 days) is also recorded. The whole experiment is separated into four groups. […] There are two experimental group: 3: Only incubate the culture isolated from the slime without incubating the antagonistic C5; and 4: Incubate both the culture isolated from the slime and the antagonistic C5. The groups described above are double checked and all experiments are repeated at least once. Deposit % is calculated by the formula as follows: [formula]
# [3] = isolated culture in sterile white water 100 mL + 3 g LBKP pulp, 40° C. 70 rpm, culture isolated from slime alone = 100%
# [4] = contrast group: only antagonistic C5, without the culture isolated from the slime
Substance,"Deposit (%) of the slime [1, 3] [%]","Deposit (%) of the slime [1, 4] [%]","Deposit % (Day 7) [2, 4] [%]","Deposit % (Day 14) [2, 4] [%]","Deposit % (Day 14) ([2]; culture isolated from slime + antagonistic C5, antagonistic C5 re-added at Day 7) [%]","Deposit % (Day 14) ([2]; culture isolated from slime + antagonistic C5 added once, not re-added, culture alone = 100%) [%]","Deposit % (Day 7) ([2]; culture isolated from slime + antagonistic C5 added once, culture alone = 100%) [%]"
Di-alkyl sulfosuccinate [dispersing agent S100],53,–,–,–,–,–,–
Streptomyces bikiniensis [Antagonistic C5],53.0,24.7,31.0,35.0,28,87,29
